In data set [1] the test system is Acinetobacter baumannii pre-formed biofilm. In words: microbe, parasite or virus in culture. As to conditions: for degradation of pre-formed biofilm: A. baumannii biofilm pre-formed 24 h, 24 h of treatment, Crystal Violet OD550; for MBC: A. baumannii biofilm pre-formed 24 h in MHB. It is filed as cell-based. How it is done: For the biofilm eradication assay the difference was at the beginning of the experiments when bacteria were pre-cultured for 24 h or 72 h in MHB with a starting OD600 = 0.01. Then bacterial suspensions were removed from the wells followed by washing three times with 200 µl of 1/2 MHB. Subsequently fresh 1/10 MHB was added to the wells containing the respective dilutions of NCR169C17–38, meropenem or polymixin B and the treatment lasted either 3 h or 24 h. Experiments were done in three biological replicates.
To assess whether the NCR169C17–38 peptide or the tested antibiotics could eradicate pre-formed biofilms, A. baumannii was first cultured in MHB for 24 h, then treated with NCR169C17–38, meropenem or polymyxin B for either 3 h or 24 h, using the same concentration range as in the previous experiment. Both bacterial survival within the pre-formed biofilm and the amount of residual biofilm were assessed. […] In contrast, neither of the two antibiotics completely eliminated the bacteria within the tested concentration range. […] This 24 h of treatment was repeated on mature biofilm (pre-formed for 72 h) and the results were very similar (Supplementary Fig. 1.).

In the next data set the test system is Acinetobacter baumannii. In words: microbe, parasite or virus in culture. It is filed as cell-based. The note with it: A. baumannii; for MBC: 24 h of treatment in MHB (method: 1/10 MHB), detected at the end of the biofilm inhibition test, read-out: MBC, Inhibition test after 24 h. How it is done: For the biofilm inhibition assay the antimicrobial activity test was done in 1/10 MHB using A. baumannii treated with the respective dilutions of NCR169C17–38, meropenem or polymixin B for 24 h. After taking the 5 μl samples at the end of the treatment and placed on LB agar to detect bacterial growth, the rest of the grown bacterial suspensions were discarded from the plate and the remaining biofilm on the walls of the plate was then washed three times with sterile water and stained using 1 % Crystal Violet (CV) for 15 min to visualize the produced biofilm. The non-adherent CV dye was then removed by washing with water three times. The plate was left for complete drying, then the biofilm-bound CV dye was dissolved in 200 µl of 30 % acetic-acid with shaking over 15 min. The absorbance was measured at OD550 using a HIDEX Plate Reader (Hidex Sense Microplate Reader with Plate Reader Software version 5064, Hidex, Finland). All measurements were repeated three times.
We examined the capacity of NCR169C17–38 to inhibit biofilm formation by Acinetobacter baumannii, a pathogen well known for its robust biofilm production and high level of antibiotic resistance. […] Additionally, at the end of the experiment we determined the quantity of the biofilm and thereby evaluated their ability to inhibit biofilm formation during culturing the bacteria in the presence of different concentrations of the agents (Fig. 1.A). We tested concentrations of NCR169C17–38 ranging from 25 μM to 0.4 μM, meropenem from 100 μM to 1.6 μM and polymyxin B from 3.1 μM to 0.05 μM.

A further data set has as its system E. coli. In words: microbe, parasite or virus in culture. As to conditions: for FBC-A: (MBC of Drug A in combination)/(MBC of Drug A alone), combination with NCR169C17–38 (Drug B), checkerboard; for FBC-A / FBC-B / FBC / Action / FBC-A (µM): concentration of Drug A for the indicated action / FBC-B (µM): concentration of Drug B for the indicated action: E. coli; for FBC-A / FBC-A (µM): concentration of Drug A for the indicated action: 3 h 37 °C; for FBC-B: (MBC of NCR169C17–38 in combination)/(MBC alone), value refers to NCR169C17–38 (Drug B) combined with the Drug A; for FBC: FBC index = FBC-A + FBC-B, Drug A combined with NCR169C17–38; for Action: interaction of Drug A with NCR169C17–38 by FBC index; for FBC-A (µM): concentration of Drug A for the indicated action / FBC-B (µM): concentration of Drug B for the indicated action: value in brackets; for FBC-A (µM): concentration of Drug A for the indicated action: Drug A in combination with NCR169C17–38, checkerboard; for FBC-B (µM): concentration of Drug B for the indicated action: concentration of NCR169C17–38 (Drug B) combined with Drug A; for MBC: Escherichia coli, read-out: Drug A MBC. How it is done:
Streptomycin was tested at concentrations ranging from 25 μM to 0.4 μM, meropenem from 200 μM to 3.1 μM, and polymyxin B from 6.3 μM to 0.1 μM. NCR335N1–19 was tested in a concentration range from 3.1 μM to 0.05 μM, while NCR335C13–33 from 12.5 μM to 0.2 μM. […] The initial E. coli density in each well were adjusted to OD600 = 0.01 corresponding to ∼10^6 bacteria/ml. […] The effectiveness of combination treatments was measured using the fractional bactericidal concentration (FBC) index, which is a metric used to assess the interaction between antimicrobial agents, determining whether their combined effect is synergistic, additive, or antagonistic. First, the MBC values of polymyxin B, meropenem, streptomycin, NCR335N1–19, and NCR335C13–33 were determined in E. coli. Subsequently, their combinations with NCR169C17–38 were examined using the FBC index. FBC = FBCA + FBCB. FBCA = (MBCA in combination) / (MBCA alone); FBCB = (MBCB in combination) / (MBCB alone). Experiments were done in three biological replicates.
The use of multiple antimicrobial agents can simultaneously target different physiological pathways in microbial cells, reducing the likelihood of resistance development and increasing treatment efficacy. To explore this strategy, we assessed the combined antibacterial effects of the NCR169C17–38 peptide with several antibiotics - specifically polymyxin B, meropenem, and streptomycin - against E. coli. […] Combination treatments were then performed using the standard checkerboard titration method, with each agent co-administered with NCR169C17–38.

Data set [2] is classed as physicochemical. As to conditions: for solubility / visible turbidity upon peptide addition: pH 7.4.

We go through 7 compounds from paper PMC12811501, “A plant-derived antimicrobial peptide with multiple mechanisms of action exhibiting antibacterial and antibiofilm activities comparable to or superior to polymyxin B” (Current Research in Microbial Sciences, 2025).

≈ marks a conversion by molar mass, not a printed value. Where two headings read alike, the source gives them in different places. Residues, ends and D or L forms follow the SMILES beside them. No end group written: not given here.

In the case of Polymyxin B, the “degradation of pre-formed biofilm” value in data set [1] is “required at least their MBC or higher concentrations”. The MBC in data set [1] (3 h treatment (method: 1/10 MHB), read-out: MBC, Eradication test after 3 h) is given as more than 3.2 µM. In addition, the MBC in data set [1] (24 h treatment (method: 1/10 MHB), read-out: MBC, Eradication test after 24 h) was more than 3.2 µM. In addition, in data set [1] (A. baumannii, as stated in the abstract), the “eradication of pre-formed biofilms at sub-MBC concentration” value was “not observed”. For the same compound, the MBC with Acinetobacter baumannii was determined as 0.8 µM. In the data set on E. coli, the FBC-A was 0.125, the FBC-B is given as 0.25, the FBC was 0.38 and the Action result is given as “Synergism (< 0.5: synergism)”. In addition, in the data set on E. coli, the “FBC-A (µM): concentration of Drug A for the indicated action” value (shortened to “FBC-A (µM): concentration”) is listed as 0.1 µM and the “FBC-B (µM): concentration of Drug B for the indicated action” value (“FBC-B (µM): concentration of Drug B” for short) is 0.4 µM. The “Drug A MBC” value in the data set on E. coli (Drug A alone, E. coli ~10^6 bacteria/ml, MHB/PPB mixture, 3 h at 37 °C, plated on LB agar, three biological replicates) came to 0.8 µM.
With `C[C@@H](O)[C@H]1C(=O)N2C(C(=O)O)=C(S[C@@H]3CN[C@H](C(=O)N(C)C)C3)[C@H](C)[C@H]12` [Meropenem], in data set [1], the “degradation of pre-formed biofilm” value was “successful even at sub-MBC level”. Further, the MBC in data set [1] (Acinetobacter baumannii, 3 h treatment (method: 1/10 MHB), read-out: MBC, Eradication test after 3 h) is more than 100 µM. For the same compound, in data set [1] (Acinetobacter baumannii, 24 h treatment (method: 1/10 MHB), read-out: MBC, Eradication test after 24 h), the MBC is more than 100 µM. For the same compound, the “inhibition of biofilm formation (Crystal Violet, OD550)” value with Acinetobacter baumannii (24 h treatment, NCR169C17–38 25-0.4 μM, meropenem 100-1.6 μM, polymyxin B 3.1-0.05 μM) is recorded as “remaining effective even at lower doses”. Further, in the data set with Acinetobacter baumannii (Acinetobacter baumannii), the MBC stood at 50 µM (≈ 19.2 µg/mL). In the data set on E. coli, the FBC-A was 0.25, the FBC-B is listed as 0.25, the FBC turned out to be 0.5 and the Action result is given as “Synergism (< 0.5: synergism)”. Also, in the data set on E. coli, the “FBC-A (µM): concentration” value was 50 µM and the “FBC-B (µM): concentration of Drug B” value is on record as 0.4 µM. Besides, the MBC in the data set on E. coli (3 h) turned out to be 200 µM.
For the compound `CC[C@H](C)[C@H](NC(=O)CNC(=O)[C@H](CS)NC(=O)[C@H](Cc1ccc(O)cc1)NC(=O)[C@H](CCCCN)NC(=O)[C@@H](NC(=O)[C@H](Cc1c[nH]cn1)NC(=O)CNC(=O)[C@@H](NC(=O)[C@H](CC(=O)O)NC(=O)[C@@H](N)CCC(=O)O)[C@@H](C)CC)[C@@H](C)CC)C(=O)N[C@H](C(=O)N[C@@H](CC(=O)O)C(=O)N[C@@H](CC(=O)O)C(=O)N[C@@H](CS)C(=O)N[C@@H](Cc1ccc(O)cc1)C(=O)N[C@@H](CCCCN)C(=O)N[C@@H](CO)C(=O)N[C@@H](CCCCN)C(=O)N[C@@H](CCCCN)C(=O)N1CCC[C@H]1C(=O)N[C@@H](CC(C)C)C(=O)N[C@@H](Cc1ccccc1)C(=O)N[C@@H](CCCCN)C(=O)N[C@H](C(=O)N[C@@H](Cc1c[nH]c2ccccc12)C(=O)N[C@@H](CCCCN)C(=O)N[C@@H](CS)C(=O)N[C@H](C(=O)N[C@@H](CCC(=O)O)C(=O)N[C@@H](CC(N)=O)C(=O)N[C@H](C(=O)N[C@@H](CS)C(=O)N[C@H](C(=O)N[C@@H](CC(C)C)C(=O)N[C@@H](Cc1c[nH]c2ccccc12)C(=O)N[C@@H](Cc1ccc(O)cc1)C(=O)N[C@@H](CCCCN)C(N)=O)C(C)C)C(C)C)C(C)C)[C@@H](C)CC)C(C)C` [NCR169] (H-EDIGHIKYCGIVDDCYKSKKPLFKIWKCVENVCVLWYK-NH2), the “solubility / visible turbidity” value in data set [2] (pH 5.8) was “eliminating visible turbidity”. Besides, the “solubility / visible turbidity upon peptide addition” value in data set [2] is “visible white turbidity”.
As to RLNTTFRPLNFKMLRFWGQ-NH2 [NCR335N1–19], the “Drug A MBC” value in the data set on E. coli (3 h) worked out at 3.125 µM. Moreover, in the data set on E. coli, the FBC-A is on record as 0.5, the FBC-B is given as 0.01, the FBC is reported as 0.5 and the Action result was “Synergism (< 0.5: synergism)”. The “FBC-A (µM): concentration” value in the data set on E. coli was found to be 1.6 µM.
Consider `CC[C@H](C)[C@H](NC(=O)[C@@H]1CCCN1C(=O)[C@@H](NC(=O)[C@H](CS)NC(=O)[C@H](Cc1ccc(O)cc1)NC(=O)[C@H](CO)NC(=O)[C@H](CCCCN)NC(=O)[C@H](CCCNC(=N)N)NC(=O)[C@H](CS)NC(=O)[C@H](CCCNC(=N)N)NC(=O)[C@@H](NC(=O)[C@H](CC(N)=O)NC(=O)[C@H](C)NC(=O)[C@H](CCCNC(=N)N)NC(=O)[C@H](CCCNC(=N)N)NC(=O)[C@H](CC(C)C)NC(=O)[C@H](CCCCN)NC(=O)[C@@H]1CCCN1C(=O)[C@H](CS)NC(=O)[C@H](CC(=O)O)NC(=O)[C@@H](N)CCCCN)C(C)C)C(C)C)C(N)=O` [NCR335C13–33] (H-KDCPKLRRANVRCRKSYCVPI-NH2; N-terminus and C-terminus assumed), for which the “Drug A MBC” value in the data set on E. coli (3 h) came to 12.5 µM. In addition, in the data set on E. coli, the FBC-A was 0.5, the FBC-B was determined as 0.03, the FBC turned out to be 0.5 and the Action result is “Synergism (< 0.5: synergism)”. In addition, in the data set with E. coli, the “FBC-A (µM): concentration” value came out at 6.25 µM and the “FBC-B (µM): concentration of Drug B” value came out at 0.048 µM.
On to `[H]/N=C(/N)N[C@H]1[C@H](O)[C@@H](O)[C@H](O[C@@H]2O[C@@H](C)[C@](O)(C=O)[C@H]2O[C@@H]2O[C@@H](CO)[C@H](O)[C@@H](O)[C@@H]2NC)[C@@H](N/C(N)=N\[H])[C@@H]1O` [Streptomycin], for which, in the data set with E. coli, the FBC-A is given as 0.5, the FBC-B turned out to be 0.5, the FBC is listed as 1 and the Action entry is given as “Additive (0.5 < FBC < 1.0: additive)”. Besides, the “FBC-B (µM): concentration of Drug B” value with E. coli stood at 0.8 µM. Moreover, the MBC in the data set with E. coli (3 h) was 3.12 µM.
For “EDIGHIKYSGIVDDSYKSKKPLFKIWKSVENVSVLWYK-NH2 [NCR169-C9,15,28,33/S]”, in data set [2], the “solubility / visible turbidity upon peptide addition” value was “no visible turbidity”.
